Measured values from patent US8318719B2, “Inhibitors of Bruton's tyrosine kinase” (Roche Palo Alto LLC, priority 2009, dated 2012).

Tested on: B cell receptor-mediated activation of B cells in human blood
Assay: Inhibition of B cell activation in whole blood measured by CD69 expression
Type: cell-based
Conditions: anti-IgM stimulation 20 h, concentration decreasing by 50% the percentage of CD69-positive cells that are also CD20-positive
Procedure: Inhibition of B Cell Activation in Whole Blood Measured by CD69 Expression
A procedure to test the ability of Btk inhibitors to suppress B cell receptor-mediated activation of B cells in human blood is as follows:
Human whole blood (HWB) is obtained from healthy volunteers, with the following restrictions: 24 hr drug-free, non-smokers. Blood is collected by venipuncture into Vacutainer tubes anticoagulated with sodium heparin. Test compounds are diluted to ten times the desired starting drug concentration in PBS (20×), followed by three-fold serial dilutions in 10% DMSO in PBS to produce a nine point dose-response curve. 5.5 μl of each compound dilution is added in duplicate to a 2 mL 96-well V bottom plate (Analytical Sales and Services, #59623-23); 5.5 μl of 10% DMSO in PBS is added to control and no-stimulus wells. HWB ([…] is added to each well, and after mixing the plates are incubated at 37 C, 5% CO2, 100% humidity for 30 minutes. Goat F(ab′)2 anti-human IgM (Southern Biotech, #2022-14) (10 μl of a 500 μ/mL solution, 50 μg/mL final concentration) is added to each well (except the no-stimulus wells) with mixing and the plates are incubated for an additional 20 hours. At the end of the 20 hour incubation, samples are incubated with florescent-probe-labeled anti-bodies (15 ul PE Mouse anti-Human CD20, BD Pharmingen, #555623, and/or 20 ul APC Mouse anti-Human CD69, BD Pharmingen #555533) for 30 minutes, at 37 C, 5% CO2, 100% humidity. Included are induced control, unstained and single stains for compensation adjustments and initial voltage settings. Samples are then lysed with 1 mL of 1× Pharmingen Lyse Buffer (BD Pharmingen #555899), and plates are centrifuged at 1800 rpm for 5 minutes. Supernatants are removed via suction and the remaining pellets are lysed again with another 1 mL of 1× Pharmingen Lyse Buffer, and plates are spun down as before. Supernatants are aspirated and remaining pellets are washed in FACs buffer (PBS+1% FBS). After a final spin, the supernantants are removed and pellets are resuspended in 180 ul of FACs buffer. Samples are transferred to a 96 well plate suitable to be run on the HTS 96 well system on the BD LSR II flow cytometer. Using appropriate excitation and emission wavelengths for the fluorophores used, data are acquired and percent positive cell values are obtained using Cell Quest Software. Results are initially analyzed by FACS analysis software (Flow Jo). […] The IC50 values are calculated using XLfit software version 3, equation 201.

Row | SMILES | IC50 [nM]
1 | Cn1cc(-c2cccc(N3CCNc4cc(C5CC5)ccc4C3=O)c2CO)cc(Nc2ccc(C(=O)N3CCOCC3)cn2)c1=O [Compound I-1, 8-Cyclopropyl-4-(2-hydroxymethyl-3-{1-methyl-5-[5-(morpholine-4-carbonyl)-pyridin-2-ylamino]-6-oxo-1,6-dihydro-pyridin-3-yl}-phenyl)-1,2,3,4-tetrahydro-benzo[e][1,4]diazepin-5-one] | 111
2 | Cn1cc(-c2cccc(N3CCNc4cc(C5CC5)ccc4C3=O)c2CO)cc(Nc2ccc(N3CCOCC3)cn2)c1=O [Compound I-2, 8-Cyclopropyl-4-{2-hydroxymethyl-3-[1-methyl-5-(5-morpholin-4-yl-pyridin-2-ylamino)-6-oxo-1,6-dihydro-pyridin-3-yl]-phenyl}-1,2,3,4-tetrahydro-benzo[e][1,4]diazepin-5-one] | 96
3 | Cn1cc(-c2cccc(N3CCNc4cc(C(C)(C)C)ccc4C3=O)c2CO)cc(Nc2ccc(C(=O)N3CCOCC3)cn2)c1=O [Compound I-3, 8-tert-Butyl-4-(2-hydroxymethyl-3-{1-methyl-5-[5-(morpholine-4-carbonyl)-pyridin-2-ylamino]-6-oxo-1,6-dihydro-pyridin-3-yl}-phenyl)-1,2,3,4-tetrahydro-benzo[e][1,4]diazepin-5-one] | 18
4 | CN1CCN(c2ccc(Nc3cc(-c4cccc(N5CCNc6cc(C(C)(C)C)ccc6C5=O)c4CO)cn(C)c3=O)nc2)CC1 [Compound I-4, 8-tert-Butyl-4-(2-hydroxymethyl-3-{1-methyl-5-[5-(4-methyl-piperazin-1-yl)-pyridin-2-ylamino]-6-oxo-1,6-dihydro-pyridin-3-yl}-phenyl)-1,2,3,4-tetrahydro-benzo[e][1,4]diazepin-5-one] | 38
5 | Cn1cc(-c2cccc(N3CCOc4cc(C(C)(C)C)ccc4C3=O)c2CO)cc(Nc2ccc(C(=O)N3CCOCC3)cn2)c1=O [II-1, 8-tert-Butyl-4-(2-hydroxymethyl-3-{1-methyl-5-[5-(morpholine-4-carbonyl)-pyridin-2-ylamino]-6-oxo-1,6-dihydro-pyridin-3-yl}-phenyl)-3,4-dihydro-2H-benzo[f][1,4]oxazepin-5-one] | 16
6 | CN1CCN(c2ccc(Nc3cc(-c4cccc(N5CCOc6cc(C(C)(C)C)ccc6C5=O)c4CO)cn(C)c3=O)nc2)CC1 [II-2, 8-tert-Butyl-4-(2-hydroxymethyl-3-{1-methyl-5-[5-(4-methyl-piperazin-1-yl)-pyridin-2-ylamino]-6-oxo-1,6-dihydro-pyridin-3-yl}-phenyl)-3,4-dihydro-2H-benzo[f][1,4]oxazepin-5-one] | 4
7 | CCN1CCN(c2ccc(Nc3cc(-c4cccc(N5CCOc6cc(C(C)(C)C)ccc6C5=O)c4CO)cn(C)c3=O)nc2)CC1 [II-3, 8-tert-Butyl-4-(3-{5-[5-(4-ethyl-piperazin-1-yl)-pyridin-2-ylamino]-1-methyl-6-oxo-1,6-dihydro-pyridin-3-yl}-2-hydroxymethyl-phenyl)-3,4-dihydro-2H-benzo[f][1,4]oxazepin-5-one] | 8
